Results from patent US10195267B2, “Vaccination strategy” (priority 2013, dated 2019).
Oligonucleotides are written 5' to 3', each unit as a sugar letter and its base; * is a phosphorothioate linkage, no mark a phosphodiester; rarer units and linkages stand in square brackets, end groups in braces. Plain capitals give the bases only. d = 2'-deoxy (DNA)

Key:
OT-I CTLs = test: Hepatic OT-I CTL expansion and iMATE formation in AdLGO- or AdLG-infected mice
[1] = system: recombinant adenovirus expressing OVA and luciferase (AdLOG); test: Acute adenoviral infection, in vivo bioluminescence as indicator of antiviral CTL activity in the liver
[2] = system: AdHBV (Hepatitis B Virus); test: Chronic AdHBV infection, HBc-DNA vaccination followed by TLR9-L at d12; format: in vivo, mice
From the text: (a) Mice with chronic AdHBV-infection after 1×10^8 ifu AdHBV-infection. Time course of serum ALT following HBc-DNA vaccination (d0) and TLR9-L or CTRL treatment (d12). OVA-DNA vaccination as control. (n=5 per group). (b-f) At d15 after vaccination, (b) immunohistochemistry for CD11 b and CD8 in the liver as described in (a) at d15 after vaccination; (c) increase of HBc93-100-specific CTLs in spleen and liver detected by dextramer-staining. (n=3 per group), ND, not detectable; (d) IFNγ-producing HBc93-100-specific CTLs isolated from livers of mice after HBc-peptide-specific restimulation ex vivo; (e) total numbers of IFNγ-producing HBc93-100-specific CTLs after peptide-specific restimulation ex vivo per gram liver (n=3, per group); (f) PD-1 expression levels on HBc93-100-specific CTLs directly ex vivo. (g) Serum HBeAg levels from mice as described in (a). (h) Immunohistochemical detection and (i) quantification of HBcore-Ag-positive hepatocytes at d42 after vaccination. HPF, high power field (magnification, 100×). *P<0.05, **P<0.01, ***P<0.001 (paired Student's t-test). Data are representative of three experiments (a, c, d, e, f, g) or two experiments (b, h, i) (a, c, e, i; error bars, s.d.).
C57BL/6J mice were infected with 1×10^8 ifu AdHBV intravenously leading to chronic AdHBV infection, as reported previously (Huang et al. Gastroenterology 2012; 142:1447-50). DNA immunization was performed as described (Huang et al. Gastroenterology 2012; 142:1447-50). After immunization, HBeAg and serum ALT (alanine aminotransferase) activity measured using GPT strips on a REFLOVET™. Plus reader (Roche) were checked at indicated time points. Livers were collected for immunohistochemical analysis. Analysis of CTL number and function ex vivo was done as described previously (Huang et al. Gastroenterology 2012; 142:1447-50).
In this model, therapeutic DNA-vaccination leads to a weak increase in circulating HBV-specific CTLs but fails to control chronic_AdHBV infection. Mice with chronic AdHBV infection were subjected to DNA-vaccination with plasmids coding for the HBV core (HBc) antigen or OVA and received TLR9-L treatment 12 d later.

[3] = system: lymphocytic choriomeningitis virus (LCMV); format: in vivo, mice
CD8+ T cells (TCM, TEM) = test: Proliferation of adoptively transferred TCM and TEM in the liver (BrdU incorporation, 7-AAD); format: in vivo, mice; conditions: 3 days after intravenous TLR9-ligand
CTLs = test: Local CTL expansion in iMATEs in the liver after systemic TLR9-L application; format: in vivo, mice
From the text: We discovered that CTL activation by simultaneous stimulation through the TCR, CD28 and IL-12 in vitro, together with systemic application of TLR9-L led to a 50-fold expansion of CTLs locally in the liver. Myeloid cell aggregates, herewith termed iMATEs, which formed in the liver upon TLR9-signaling, facilitate massive CTL expansion, which contributes to anti-viral immunity and overcomes chronic viral infection in mice.

[4] = TLR9-L at d12 after HBcore-DNA vaccination

“5′-S-TCCATGACGTTCCTGATGCT-3′ (DNA dT*dC*dC*dA*dT*dG*dA*dC*dG*dT*dT*dC*dC*dT*dG*dA*dT*dG*dC*dT) [TLR9-L, ID; No. 1, from TIB MOLBIOL]” was tested, and the “numbers of hepatic OT-I CTLs” value (OT-I CTLs; AdLG-infected mice (no OVA antigen), 1x10^5 activated OT-I CTLs plus TLR9-L) was “increase”, the “further expansion of OT-I CTLs” value (OT-I CTLs; AdLGO-infected TLR9-L-injected mice, compared with AdLG-infected mice given TLR9-L) was 7 fold and the “formation of iMATEs” value (OT-I CTLs; upon TLR9-L injection in adenovirus-infected mice) was “further improved”. The “in vivo bioluminescence (hepatic viral luciferase expression)” value ([1]; TLR9-L application alone, mice infected with 10^6 ifu AdLOG) was “did not significantly reduce”, the “time to efficient control of hepatic viral luciferase expression” value ([1]; transfer of 10^4 OT-I CTLs together with TLR9-L, 10^6 ifu AdLOG) was no more than 4 days and the “serum ALT” value ([2]; DNA vaccination (HBc or OVA) and TLR9-L 12 d later, most pronounced in HBc-vaccinated mice) was “transient rise”. For the same substance, the “serum HBeAg levels” value ([2]; HBc-DNA vaccination in combination with TLR9-L, after 28 d) was “significant downregulation”, the “HBV-infected (HBcore-Ag-positive) hepatocytes” value ([2]; HBc-DNA vaccination in combination with TLR9-L, d42) was “elimination” and the “PD1 expression on recently activated CD69+ HBcore-specific CTLs” value ([2]; HBc-DNA vaccination plus TLR9-L) was “lower expression levels”. For the same substance, the “IFNgamma expression of HBcore-specific CTLs upon antigen-specific restimulation ex vivo” value [2, 4] was “functional and expressed IFNγ”, the “expansion of HBc-specific CTLs in livers” value [2, 4] was “pronounced expansion” and the iMATE formation ([2]; mice with chronic AdHBV infection) was “induced iMATE formation”. For the same substance, the “numbers of LCMV gp33-specific CTLs in the liver” value ([3]; LCMV-specific CTL transfer (10^6/mouse) together with TLR9-L at d0, d7 and d10) was “significant increase”, the “LCMV titers in serum and liver” value ([3]; LCMV-specific CTL transfer together with TLR9-L injection) was “dropped to background levels” and the “numbers of LCMV-specific CTLs” value ([3]; TLR9-L application alone, d14 after the first transfer) was “did not lead to significant increases”. The “iMATE induction in livers” value ([3]; chronic LCMV-infected mice) was “can be induced”, the “proliferation of adoptively transferred TEM in the liver” value (CD8+ T cells (TCM, TEM)) was “marked proliferation” and the “proliferation of adoptively transferred TCM in the liver” value (CD8+ T cells (TCM, TEM); cells in S and G2-M phase) was “strong proliferation”. The “expansion of CTLs locally in the liver” value (CTLs; CTLs activated in vitro through TCR, CD28 and IL-12, with systemic TLR9-L) was 50 fold and the autoimmunity (CTLs; single TLR9-L application) was “did not trigger autoimmunity”.
